Test results reported in publication PMC10444810, “Induction of open-form bile canaliculus formation by hepatocytes for evaluation of biliary drug excretion” (Communications Biology, 2023).
“And” between values parts separate entries of the source, which are not always exact repeats. Equal entries are not always repeated. Where two headings read alike, the source gives them in different places.

T1: OCT1 (Homo sapiens, UniProt O15245)
T1 sequence (O15245 1-554): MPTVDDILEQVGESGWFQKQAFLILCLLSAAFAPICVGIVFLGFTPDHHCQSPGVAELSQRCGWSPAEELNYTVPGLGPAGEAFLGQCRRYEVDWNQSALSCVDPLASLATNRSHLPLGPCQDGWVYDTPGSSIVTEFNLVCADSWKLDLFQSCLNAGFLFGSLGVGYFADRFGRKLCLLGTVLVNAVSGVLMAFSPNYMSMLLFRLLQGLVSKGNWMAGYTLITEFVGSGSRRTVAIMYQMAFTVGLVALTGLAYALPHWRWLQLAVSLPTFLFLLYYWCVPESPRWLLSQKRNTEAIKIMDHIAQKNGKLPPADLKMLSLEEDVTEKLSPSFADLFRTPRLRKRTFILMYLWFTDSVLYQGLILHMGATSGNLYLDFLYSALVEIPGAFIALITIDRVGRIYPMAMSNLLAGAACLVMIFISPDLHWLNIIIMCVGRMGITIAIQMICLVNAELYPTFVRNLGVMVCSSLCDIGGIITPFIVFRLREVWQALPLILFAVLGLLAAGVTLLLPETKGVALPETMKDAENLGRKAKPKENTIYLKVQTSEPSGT


Columns and labels:
[1] = Reported human in vivo biliary excretion clearance and intrinsic clearance estimated from it (Eq. 4)
[2] = tested on: sandwich-cultured PXB-cells; conditions: human, 1 μM
[3] = cited from earlier work; for Observed in vivo CLbile: human
[4] = cited from earlier work
[5] = blood/plasma concentration ratio, cited from earlier work
[6] = icHep permeation assay (sinusoidal to bile side) to estimate drug biliary excretion clearance; conditions: human
OCT1 = target: T1, OCT1; conditions: for Uptake / CLuptake: single wells; for CLuptake, Mean: mean of wells
[7] = tested on: primary human hepatocytes / PXB-cells; assay: Counting hepatocyte bile canaliculi opening to the culture equipment (hemi-lumen formation rate); assay type: cell-based; conditions: for hemi-lumen formation rate: PXB-cells (donor), supports individually coated with each claudin; for Open bile canalicular formation rate (%) Mean / Open bile canalicular formation rate (%): icHep (JFC), claudin coating; for Open bile canalicular formation rate (%) Mean: mean of 3; for Open bile canalicular formation rate (%): single replicate
Experimental: Transwell^TM permeable support used was coated with 50 μg/ml rat tail collagen I (Corning) in 0.02 N acetic acid at room temperature for 1 h. Transwell^TM was washed twice with PBS, then the in vitro-synthesised claudin-1, -2, -3, and -9 proteins were applied to Transwell^TM at a density of 750 ng/cm^2 each and incubated at room temperature for 1 h. Transwell^TM was washed twice with PBS before seeding cells. Cryopreserved human hepatocytes (Donor ID. HU1663) were purchased from Thermo Fisher Scientific and thawed using CHRM. The hepatocytes were then diluted with WEM containing CM3000. PXB-cells (Donor ID. JFC, and HUM181001B) were obtained from PhoenixBio (Hiroshima, Japan) as described previously. […] PXB-cells were resuspended in 2% DMSO-supplemented hepatocyte growth medium (d-HCGM)[27]. Cryopreserved human hepatocytes and PXB-cells were seeded at a density of 2.1 × 10^5 cells/cm^2 in the protein-coated culture equipment. After 4 h of incubation, the culture medium was replaced with fresh culture medium to remove the unattached cells. After 24 h of incubation, the cells were cultured in d-HCGM supplemented with 250 μg/ml Matrigel. The spent medium was replaced with fresh medium every 3 days. Donor information for the human hepatocytes used is listed in Supplementary Table 2.
To count the open- and closed-type bile canaliculi, MRP2 immunostaining was performed using the Z-stack function of a confocal microscope (LSM710; Carl Zeiss, Oberkochen, Germany). Immunostaining was performed as previously described. The ratio of open-type bile canaliculi to the total number of bile canaliculi was calculated according to Eq. (1), and the value obtained was evaluated as the induction rate of open-type bile canaliculi. Here, Aopen bile canaliculi and Abile canaliculi indicate the number of open-type bile canaliculi and total number of bile canaliculi, respectively.1 Formationrate%=Aopenbilecanaliculi/Abilecanaliculi×100

[8] = estimated from observed CLbile with fp, Rb, Qh 1400 ml/min
[9] = estimated from observed in vivo CLbile with fp, Rb and Qh 1400 ml/min
[10] = reported in vivo biliary excretion clearance
[11] = unbound fraction of the plasma protein
[12] = unbound fraction, reported value
[13] = Biliary excretion clearance, in vitro, observed, CLbile, int, icHep (HUM181001B), CLbile,app of icHep minus control cells

Molecule	Observed in vivo CLbile, int [1, 8] [mL/min]	Observed in vivo CLbile, int [1, 9] [mL/min]	BEI (%) Mean ([2]; 2 min) [%]	Predicted in vivo CLbile, int, Mean ([2]; 2 min) [mL/min]	BEI (%) Mean ([2]; 5 min) [%]	Predicted in vivo CLbile, int, Mean ([2]; 5 min) [mL/min]	BEI (%) Mean ([2]; 10 min) [%]	Predicted in vivo CLbile, int, Mean ([2]; 10 min) [mL/min]	BEI (%) Mean ([2]; 20 min) [%]	Predicted in vivo CLbile, int, Mean ([2]; 20 min) [mL/min]	Observed in vivo CLbile [3, 10] [mL/min]	Observed in vivo CLbile ([3]; reported value) [mL/min]	fp [4, 11]	fp [4, 12]	Rb ([5]; reported value)	Rb [5]	hepatocyte CLint at 1 μM [6] [µL/min/1e6 cells]	hepatocyte CLint at 1 μM [6, 13] [µL/min/1e6 cells]	hemi-lumen formation rate [7] [%]	Open bile canalicular formation rate (%) Mean [7] [%]	also measured
CC[C@H]1OC(=O)[C@H](C)[C@@H](O[C@H]2C[C@@](C)(OC)[C@@H](O)[C@H](C)O2)[C@H](C)[C@@H](O[C@@H]2O[C@H](C)C[C@H](N(C)C)[C@H]2O)[C@](C)(O)C[C@@H](C)C(=O)[C@H](C)[C@@H](O)[C@]1(C)O [Erythromycin, erythromycin]	285	285	46.3	2262	22.5	289	30.0	238	54.8	310	80.3	80.3	0.305	0.305	0.75	0.75	0.732 ± 0.0721	0.793 ± 0.0723			Biliary excretion clearance, in vivo, observed, CLbile ([3]; in vivo): 80.3[36] ml/min; fp, unbound fraction of the plasma protein ([4]; plasma): 0.305[37]
CC[C@]1(O)C[C@H]2CN(CCc3c([nH]c4ccccc34)[C@@](C(=O)OC)(c3cc4c(cc3OC)N(C=O)[C@H]3[C@@](O)(C(=O)OC)[C@H](OC(C)=O)[C@]5(CC)C=CCN6CC[C@]43[C@@H]65)C2)C1 [Vincristine, vincristine]	25.5	25.5	11.7	329	16.5	199	26.3	190	40.4	168	12.9	12.9	0.51	0.51	1.2	1.2	0.173 ± 0.052	0.128 ± 0.0438			fp, unbound fraction of the plasma protein ([4]; reported value): 0.51[47]
CN/C(=N/CCSCc1nc[nH]c1C)NC#N [Cimetidine, cimetidine]	12.3	12.3	48.1	2714	32.5	478	19.7	126	19.6	60.3	9.9	9.9	0.81	0.81	0.97	0.97	0.869 ± 0.0152	0.453 ± 0.163			fp, unbound fraction of the plasma protein ([4]; reported value): 0.81[32]
CN(C)C(=N)N=C(N)N [Metformin]																					Uptake (OCT1; icHep (HUM181001B), incubation time 0.5 min): 2.903 ul/106 cells and 3.372 ul/106 cells and 2.496 ul/106 cells and 3.301 ul/106 cells; Uptake (OCT1; icHep (HUM181001B), incubation time 1 min): 5.838 ul/106 cells and 5.176 ul/106 cells and 6.237 ul/106 cells and 6.072 ul/106 cells; Uptake (OCT1; icHep (HUM181001B), incubation time 2 min): 12.5578 ul/106 cells and 11.8508 ul/106 cells and 13.1191 ul/106 cells and 15.8618 ul/106 cells; Uptake (OCT1; icHep (HUM181001B), incubation time 5 min): 32.1771 ul/106 cells and 34.4238 ul/106 cells and 29.3661 ul/106 cells and 33.2229 ul/106 cells; CLuptake, Mean (OCT1; icHep (HUM181001B)): 7.52 ul/min/106 cells; CLuptake (OCT1; icHep (HUM181001B)): 6.72 ul/min/106 cells and 6.68 ul/min/106 cells and 6.88 ul/min/106 cells and 9.79 ul/min/106 cells; Uptake (OCT1; icHep (JFC), incubation time 0.5 min): 3.7065 ul/106 cells and 4.783 ul/106 cells and 4.1818 ul/106 cells and 4.442 ul/106 cells; Uptake (OCT1; icHep (JFC), incubation time 1 min): 7.468 ul/106 cells and 9.292 ul/106 cells and 7.7376 ul/106 cells and 10.2512 ul/106 cells; Uptake (OCT1; icHep (JFC), incubation time 2 min): 17.213 ul/106 cells and 18.5255 ul/106 cells and 16.0946 ul/106 cells and 17.048 ul/106 cells; Uptake (OCT1; icHep (JFC), incubation time 5 min): 50.6594 ul/106 cells and 43.7801 ul/106 cells and 38.495 ul/106 cells and 43.9119 ul/106 cells; CLuptake, Mean (OCT1; icHep (JFC)): 8.82 ul/min/106 cells; CLuptake (OCT1; icHep (JFC)): 7.5 ul/min/106 cells and 9.0 ul/min/106 cells and 7.1 ul/min/106 cells and 11.6 ul/min/106 cells
claudin-9: human claudin-9 protein from E. coli cell-free synthesis, coated on the permeable support (protein, UniProt O95484 1-217, looked up) Claudin-9: MASTGLELLGMTLAVLGWLGTLVSCALPLWKVTAFIGNSIVVAQVVWEGLWMSCVVQSTGQMQCKVYDSLLALPQDLQAARALCVIALLLALLGLLVAITGAQCTTCVEDEGAKARIVLTAGVILLLAGILVLIPVCWTAHAIIQDFYNPLVAEALKRELGASLYLGWAAAALLMLGGGLLCCTCPPPQVERPRGPRLGYSIPSRSGASGLDKRDYV																			35.9 ± 6.4	35.9	Open bile canalicular formation rate (%) [7]: 30.3% and 42.9% and 34.5%
claudin-2: human claudin-2 protein from E. coli cell-free synthesis, coated on the permeable support (protein, UniProt P57739 1-230, looked up) Claudin-2: MASLGLQLVGYILGLLGLLGTLVAMLLPSWKTSSYVGASIVTAVGFSKGLWMECATHSTGITQCDIYSTLLGLPADIQAAQAMMVTSSAISSLACIISVVGMRCTVFCQESRAKDRVAVAGGVFFILGGLLGFIPVAWNLHGILRDFYSPLVPDSMKFEIGEALYLGIISSLFSLIAGIILCFSCSSQRNRSNYYDAYQAQPLATRSSPRPGQPPKVKSEFNSYSLTGYV																			48.9 ± 12	48.9	Open bile canalicular formation rate (%) [7]: 36.6% and 60.0% and 50.0%
claudin-3: human claudin-3 protein from E. coli cell-free synthesis, coated on the permeable support (protein, UniProt O15551 1-220, looked up) Claudin-3: MSMGLEITGTALAVLGWLGTIVCCALPMWRVSAFIGSNIITSQNIWEGLWMNCVVQSTGQMQCKVYDSLLALPQDLQAARALIVVAILLAAFGLLVALVGAQCTNCVQDDTAKAKITIVAGVLFLLAALLTLVPVSWSANTIIRDFYNPVVPEAQKREMGAGLYVGWAAAALQLLGGALLCCSCPPREKKYTATKVVYSAPRSTGPGASLGTGYDRKDYV																			38.6 ± 8.1	38.6	Open bile canalicular formation rate (%) [7]: 34.6% and 33.3% and 48.0%
